Test results as given in PubChem BioAssay AID248 (DTP/NCI, 2004).
“And” between values parts separate entries of the source, which are not always exact repeats. Equal entries are not always repeated. Toxic doses and inconclusive results are not listed. Cut-off read from the data, not from the text of the source: active = T/C of 150% or more; inactive = T/C below 125%.

Tested on: L1210 leukemia ip in BDF1 mice, survival T/C
Test: NCI In Vivo Anticancer Drug Screen. Data for tumor model L1210 Leukemia (intraperitoneal) in B6D2F1 (BDF1) mice
Conditions: endpoint: mean survival time, higher = longer survival
In short: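 Tumor was transplanted into mice, which were then dosed with test compound or vehicle alone. Survival was recorded for each group, and the treated figure was expressed relative to the control figure.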

[1] = dose: 100.0 mg/kg/injection, schedule: Q04DX003 (ip), vehicle: Klucel (hydroxypropylcellulose) (HPC)
[2] = dose: 200.0 mg/kg/injection, schedule: Q04DX003 (ip), vehicle: Klucel (hydroxypropylcellulose) (HPC)
[3] = dose: 400.0 mg/kg/injection, schedule: Q04DX003 (ip), vehicle: Klucel (hydroxypropylcellulose) (HPC)
[4] = dose: 50.0 mg/kg/injection, schedule: Q04DX003 (ip), vehicle: saline with Tween-80
[5] = dose: 100.0 mg/kg/injection, schedule: Q01DX009 (ip), vehicle: Klucel (hydroxypropylcellulose) (HPC)
[6] = dose: 100.0 mg/kg/injection, schedule: Q04DX002 (ip), vehicle: Klucel (hydroxypropylcellulose) (HPC)
[7] = dose: 200.0 mg/kg/injection, schedule: Q04DX002 (ip), vehicle: Klucel (hydroxypropylcellulose) (HPC)
[8] = dose: 400.0 mg/kg/injection, schedule: Q04DX002 (ip), vehicle: Klucel (hydroxypropylcellulose) (HPC)

Measured: T/C

O=C(O)COc1ccccc1Cl
inactive: [1] 105 % of control | [2] 104 % of control | [3] 107 % of control

CCC(c1ccc(OC)cc1)C(O)(CC)c1ccc(OC)cc1 (centres undefined)
inactive: [1] 98 % of control | [2] 98 % of control | [3] 102 % of control

Cc1cc(/C=C/c2ccc3cc(N(C)C)ccc3[n+]2C)c(C)n1-c1ccccc1
inactive: dose: 1.56 mg/kg/injection, schedule: Q01DX009 (ip), vehicle: saline with Tween-80 112 % of control

O=C(CSc1cc(Cl)c(Cl)cc1Cl)Nc1cccc(Br)c1
inactive: [4] 94 % of control | dose: 100.0 mg/kg/injection, schedule: Q04DX003 (ip), vehicle: saline with Tween-80 87 % of control | dose: 200.0 mg/kg/injection, schedule: Q04DX003 (ip), vehicle: saline with Tween-80 96 % of control

O=c1oc(-c2ccccc2)n[n+]([O-])c1-c1ccccc1
inactive: dose: 50.0 mg/kg/injection, schedule: Q01DX009 (ip), vehicle: Klucel (hydroxypropylcellulose) (HPC) 98 % of control | [5] 98 % of control

CCOC(=O)N/N=C/c1c(F)cccc1Cl
inactive: dose: 75.0 mg/kg/injection, schedule: Q01DX001 (ip), vehicle: carboxymethylcellulose (CMC) 101 % of control | dose: 150.0 mg/kg/injection, schedule: Q01DX001 (ip), vehicle: carboxymethylcellulose (CMC) 106 % of control | dose: 300.0 mg/kg/injection, schedule: Q01DX001 (ip), vehicle: carboxymethylcellulose (CMC) 101 % of control

N=C(N)CCN
inactive: dose: 100.0 mg/kg/injection, schedule: Q01DX001 (ip), vehicle: saline 98 % of control | dose: 200.0 mg/kg/injection, schedule: Q01DX001 (ip), vehicle: saline 102 % of control

CCCCc1cn(C(=O)CCCl)nn1
inactive: dose: 100.0 mg/kg/injection, schedule: Q04DX002 (ip), vehicle: saline with Tween-80 100 % of control | dose: 200.0 mg/kg/injection, schedule: Q04DX002 (ip), vehicle: saline with Tween-80 100 % of control

CNC(=O)Oc1cccc(C)c1
inactive: dose: 25.0 mg/kg/injection, schedule: Q01DX009 (ip), vehicle: saline with Tween-80 97 % of control | dose: 50.0 mg/kg/injection, schedule: Q01DX009 (ip), vehicle: saline with Tween-80 94 % of control

CN(C)NC(=O)CC(N)C(=O)O (centres undefined)
inactive: dose: 100.0 mg/kg/injection, schedule: Q01DX009 (ip), vehicle: saline 97 % of control | dose: 200.0 mg/kg/injection, schedule: Q01DX009 (ip), vehicle: saline 114 % of control | dose: 400.0 mg/kg/injection, schedule: Q01DX009 (ip), vehicle: saline 100 % of control

CC(/C=N/N=C(N(C)C)N(C)C)=N/N=C(N(C)C)N(C)C
inactive: dose: 15.0 mg/kg/injection, schedule: Q01DX Z (ip), vehicle: methylcellulose (MC) 94 % of control | dose: 30.0 mg/kg/injection, schedule: Q01DX Z (ip), vehicle: methylcellulose (MC) 97 % of control | dose: 30.0 mg/kg/injection, schedule: Q01DX Z (oral), vehicle: methylcellulose (MC) 102 % of control | dose: 60.0 mg/kg/injection, schedule: Q01DX Z (ip), vehicle: methylcellulose (MC) 97 % of control | dose: 60.0 mg/kg/injection, schedule: Q01DX Z (oral), vehicle: methylcellulose (MC) 95 % of control | dose: 120.0 mg/kg/injection, schedule: Q01DX Z (ip), vehicle: methylcellulose (MC) 101 % of control

CCCCCCCCCC(=O)NN1CCOCC1
inactive: dose: 100.0 mg/kg/injection, schedule: Q01DX009 (ip), vehicle: saline with Tween-80 105 % of control | dose: 200.0 mg/kg/injection, schedule: Q01DX009 (ip), vehicle: saline with Tween-80 89 % of control | dose: 400.0 mg/kg/injection, schedule: Q01DX009 (ip), vehicle: saline with Tween-80 89 % of control

Nc1ncc(N=O)c(=O)[nH]1
inactive: [6] 96 % of control | [7] 99 % of control | [8] 96 % of control and 101 % of control

COc1ccc(N=Nc2cc(C)c(C)cc2O)cc1
inactive: [5] 96 % of control | dose: 200.0 mg/kg/injection, schedule: Q01DX009 (ip), vehicle: Klucel (hydroxypropylcellulose) (HPC) 103 % of control | dose: 400.0 mg/kg/injection, schedule: Q01DX009 (ip), vehicle: Klucel (hydroxypropylcellulose) (HPC) 94 % of control

Nc1nc(N)nc(-c2ccccc2N=NNc2ccc([N+](=O)[O-])cc2)n1
inactive: [6] 97 % of control | [7] 93 % of control | [8] 89 % of control

CCCCCCC1CCCCN1 (centres undefined)
inactive: dose: 5.0 mg/kg/injection, schedule: Q01DX001 (ip), vehicle: saline 104 % of control | dose: 10.0 mg/kg/injection, schedule: Q01DX001 (ip), vehicle: saline 96 % of control | dose: 12.5 mg/kg/injection, schedule: Q04DX003 (ip), vehicle: saline with Tween-80 103 % of control | dose: 20.0 mg/kg/injection, schedule: Q01DX001 (ip), vehicle: saline 98 % of control | dose: 25.0 mg/kg/injection, schedule: Q04DX003 (ip), vehicle: saline with Tween-80 98 % of control | dose: 40.0 mg/kg/injection, schedule: Q01DX001 (ip), vehicle: saline 96 % of control | [4] 103 % of control
